# Assay results taken from patent publication US20250304623A1, “PEPTIDES FOR INTRACELLULAR DELIVERY” (UNIVERSIDADE DE SANTIAGO DE COMPOSTELA, priority 2022, published 2025).
# *: point of attachment. NHNH2 = NN*
# Legend:
# Assay type in all cases: cell-based
# A549 cells = assay: RLuc pDNA delivery, robotic library screening, A549
# Procedure: (§1) Cells were seeded in a 96 well plate the day before the experiment at a concentration of 60,000 cell/mL (100 μL/w) in DMEM+10% FBS+1% Gln-Abt. For robotic library screening, the delivery of pDNA encoding for the expression of Renilla luciferase gene (RLuc, pRL-CMV (Promega, #E2261)) in six different cell lines was performed. Amphihilic molecule stock solutions in DMSO were diluted with DMEM and freshly mixed with pDNA stock solutions in DMEM prior to transfection experiments, to afford several complexes at different amphiphile concentration (2-10 μM) while maintaining a constant final pDNA concentration of 2 ng/μL. The mixture was shaken for 30 min at room temperature before the addition to the cells. The cell medium was aspirated, and cells were washed twice with PBS. Finally, 50 μL of the complex's solution were added to the cells and incubated for 4 h. After the incubation, the medium was replaced by 100 μL of fresh DMEM supplemented with 10% FBS. 72 hours after transfection the DMEM was removed, cells were washed once with HBSS and 90 μL of HBSS were added to each well. Cells were incubated at 37° C. for 30 minutes. Then basal luminescence levels were read in a plate reader. Immediately, 10 μL of coelenterazine h in HBSS were added to each well (5 μM final concentration) and cells were incubated at 37° C. for 10 minutes. Finally, the total luminescence measurement of the plates was performed. Amphiphile transfection efficiency was compared and normalized to Lipofectamine® 2000 efficiency (value of 1 in Tables 1-5 and 7; bold numbers). All experiments were done in triplicate.
# (§2) Tables 1-7: RLuc (pDNA) or EGFP (mRNA) expression levels were normalized to Lipofectamine reagents (value=1) and expressed as fold-times signal increase. In the case of siRNA, the siRNA treated cells fluorescence was compared with siMOCK control fluorescence, while Cas9-RNP mediated knockout was measured against the fluorescence of untreated cells. In both siRNA and Cas9-RNP, values are expressed as % fluorescence reduction. Amphiphile concentration was 5 μM in all cases. All experiments were performed in triplicate.
# (§3) Tables 8-13 show the mean (triplicates) luminescent intensity (RLU) measured after the transfection of RLuc pDNA by different amphiphiles at different concentrations in a variety of cell lines. Background luminescence values, accounted by untransfected control cells, were subtracted for processing.
# ARPE19 cells = assay: RLuc pDNA delivery, robotic library screening, ARPE19
# HCT116 cells = assay: RLuc pDNA delivery, robotic library screening, HCT116
# Hek293 cells = assay: RLuc pDNA delivery, robotic library screening, Hek293
# Hela cells = assay: RLuc pDNA delivery, robotic library screening, HeLa; settings: Hela
# Procedure: as §1, with “Amphihilic molecule stock solutions in DMSO were diluted with DMEM and freshly mixed with pDNA stock solutions in DMEM prior to transfection experiments, to afford several complexes at different amphiphile concentration (2-10 μM) while maintaining a constant final pDNA concentration of 2 ng/μL.” left out
# as §2, §3
# HepG2 cells [1] = assay: RLuc pDNA delivery, robotic library screening, HepG2
# Procedure: as §1, §2, §3
# HepG2 cells [2] = assay: EGFP mRNA delivery, robotic library screening, HepG2; settings: HepG2 cells
# Procedure: Cells were seeded in a 96 well plate the day before the experiment at a concentration of 50,000 cell/mL (100 μL/w) in DMEM+10% FBS+1% Gln-Abt. For robotic library screening, the delivery of EGFP-mRNA (from TriLink, fully substituted with 5-methoxyuridine, capped and polyadenylated; TriLink, CleanCap® EGFP mRNA (5moU), ref. L-7201) in six different cell lines was performed. Amphiphilic molecule stock solutions were prepared in DMSO as described above and diluted in DMEM to afford a range of concentrations. The solutions of EGFP-mRNA/amphiphilic molecule complexes were freshly prepared prior to the transfection experiments. 35 μL of the corresponding amphiphile were added to 10 μL of a solution of EGFP-mRNA at 10 ng/μL in DMEM. The mixture was shaken for 30 min at room temperature before the addition to the cells. The cell medium was aspirated, and cells were washed with PBS twice. […] After the incubation, the medium was replaced by 100 μL of fresh DMEM supplemented with 10% FBS. The total EGFP fluorescence was quantified after 72 h in a well plate reader. Amphiphile transfection efficiency was compared and normalized to Lipofectamine® MessengerMax efficiency (value of 1 in Tables 1-5 and 7; double underlined numbers). All experiments were done in triplicate.
# as §2
# Tables 14-19 show the mean (triplicates) fluorescence intensity measured after the transfection of EGFP mRNA by different amphiphiles at different concentrations in a variety of cell lines. Background fluorescence values, accounted by untreated control cells, were subtracted for processing.
substance,measurement,setting,value
Ac-RRK*K*RK*LRRLLRL-NH2 [13(3b)],mean luminescent intensity (RLuc pDNA),"A549 cells; Dodecanal, 15 μM",2061 RLU
same,mean luminescent intensity (RLuc pDNA),"A549 cells; Oleyl, 5 μM",9759 RLU
same,mean luminescent intensity (RLuc pDNA),"A549 cells; Oleyl, 10 μM",1493 RLU
same,mean luminescent intensity (RLuc pDNA),"A549 cells; Oleyl, 15 μM",1440 RLU
same,mean luminescent intensity (RLuc pDNA),"ARPE19 cells; Dodecanal, 5 μM",4597 RLU
same,mean luminescent intensity (RLuc pDNA),"ARPE19 cells; Myristoleyl, 5 μM",2571 RLU
same,mean luminescent intensity (RLuc pDNA),"ARPE19 cells; Myristoleyl, 10 μM",86 RLU
same,mean luminescent intensity (RLuc pDNA),"ARPE19 cells; Myristoleyl, 15 μM",64 RLU
same,mean luminescent intensity (RLuc pDNA),"ARPE19 cells; Petroselinyl, 5 μM",5548 RLU
same,mean luminescent intensity (RLuc pDNA),"HCT116 cells; Dodecanal, 5 μM",101412 RLU
same,mean luminescent intensity (RLuc pDNA),"HCT116 cells; Dodecanal, 10 μM",17841 RLU
same,mean luminescent intensity (RLuc pDNA),"HCT116 cells; Dodecanal, 15 μM",3435 RLU
same,mean luminescent intensity (RLuc pDNA),"HCT116 cells; Myristoleyl, 5 μM",34451 RLU
same,mean luminescent intensity (RLuc pDNA),"HCT116 cells; Myristoleyl, 15 μM",504 RLU
same,mean luminescent intensity (RLuc pDNA),"HCT116 cells; Oleyl, 5 μM",18257 RLU
same,mean luminescent intensity (RLuc pDNA),"HCT116 cells; Palmitoleyl, 5 μM",65487 RLU
same,mean luminescent intensity (RLuc pDNA),"HCT116 cells; Petroselinyl, 5 μM",11255 RLU
same,mean luminescent intensity (RLuc pDNA),"Hek293 cells; Dodecanal, 5 μM",233706 RLU
same,mean luminescent intensity (RLuc pDNA),"Hek293 cells; Palmitoleyl, 5 μM",97665 RLU
same,mean luminescent intensity (RLuc pDNA),"Hek293 cells; Palmitoleyl, 10 μM",33115 RLU
same,mean luminescent intensity (RLuc pDNA),"Hek293 cells; Petroselinyl, 5 μM",100988 RLU
same,mean luminescent intensity (RLuc pDNA),"Hek293 cells; Petroselinyl, 10 μM",48097 RLU
same,mean luminescent intensity (RLuc pDNA),"Hela cells; Myristoleyl, 5 μM",893 RLU
same,mean luminescent intensity (RLuc pDNA),"Hela cells; Myristoleyl, 10 μM",446 RLU
same,mean luminescent intensity (RLuc pDNA),"Hela cells; Myristoleyl, 15 μM",338 RLU
same,mean luminescent intensity (RLuc pDNA),"Hela cells; Petroselinyl, 5 μM",590 RLU
same,mean luminescent intensity (RLuc pDNA),"HepG2 cells [1]; Oleyl, 5 μM",128030 RLU
same,mean luminescent intensity (RLuc pDNA),"HepG2 cells [1]; Oleyl, 10 μM",4005 RLU
same,mean luminescent intensity (RLuc pDNA),"HepG2 cells [1]; Oleyl, 15 μM",−1204 RLU
same,mean fluorescence intensity after transfection of EGFP mRNA,"HepG2 cells [2]; Palmitoleyl, 5 μM",1176
same,mean fluorescence intensity after transfection of EGFP mRNA,"HepG2 cells [2]; Palmitoleyl, 10 μM",−335
same,mean fluorescence intensity after transfection of EGFP mRNA,"HepG2 cells [2]; Palmitoleyl, 15 μM",−37
same,mean fluorescence intensity after transfection of EGFP mRNA,"HepG2 cells [2]; Petroselinyl, 10 μM",189
"Ac-RRLK*RK*LRRLK*RL-NH2 (Ac-RRLK(NHNH2)RK(NHNH2)LRRLK(NHNH2)RL-NH2; not fully specified; printed as Ac-RRLK*RK*LRRLK*RL-NH2; also: K*4,K*6,K*11: native or modified lysine (ε-amide to a linker)) [13(2 + 1)]",mean luminescent intensity (RLuc pDNA),"A549 cells; Dodecanal, 5 μM",24508 RLU
same,mean luminescent intensity (RLuc pDNA),"A549 cells; Dodecanal, 10 μM",1332 RLU
same,mean luminescent intensity (RLuc pDNA),"A549 cells; Myristoleyl, 5 μM",11594 RLU
same,mean luminescent intensity (RLuc pDNA),"A549 cells; Myristoleyl, 10 μM",2240 RLU
same,mean luminescent intensity (RLuc pDNA),"A549 cells; Oleyl, 5 μM",3288 RLU
same,mean luminescent intensity (RLuc pDNA),"A549 cells; Palmitoleyl, 5 μM",22640 RLU
same,mean luminescent intensity (RLuc pDNA),"A549 cells; Palmitoleyl, 10 μM",4550 RLU
same,mean luminescent intensity (RLuc pDNA),"A549 cells; Petroselinyl, 5 μM",19295 RLU
same,mean luminescent intensity (RLuc pDNA),"A549 cells; Petroselinyl, 15 μM",2435 RLU
same,mean luminescent intensity (RLuc pDNA),"ARPE19 cells; Dodecanal, 5 μM",10116 RLU
same,mean luminescent intensity (RLuc pDNA),"ARPE19 cells; Myristoleyl, 5 μM",2549 RLU
same,mean luminescent intensity (RLuc pDNA),"ARPE19 cells; Myristoleyl, 10 μM",−28 RLU
same,mean luminescent intensity (RLuc pDNA),"ARPE19 cells; Myristoleyl, 15 μM",−36 RLU
same,mean luminescent intensity (RLuc pDNA),"ARPE19 cells; Palmitoleyl, 5 μM",5094 RLU
same,mean luminescent intensity (RLuc pDNA),"ARPE19 cells; Petroselinyl, 5 μM",4118 RLU
same,mean luminescent intensity (RLuc pDNA),"HCT116 cells; Dodecanal, 5 μM",132238 RLU
same,mean luminescent intensity (RLuc pDNA),"HCT116 cells; Dodecanal, 10 μM",6721 RLU
same,mean luminescent intensity (RLuc pDNA),"HCT116 cells; Dodecanal, 15 μM",2207 RLU
same,mean luminescent intensity (RLuc pDNA),"HCT116 cells; Myristoleyl, 5 μM",70015 RLU
same,mean luminescent intensity (RLuc pDNA),"HCT116 cells; Myristoleyl, 15 μM",1114 RLU
same,mean luminescent intensity (RLuc pDNA),"HCT116 cells; Palmitoleyl, 5 μM",105588 RLU
same,mean luminescent intensity (RLuc pDNA),"HCT116 cells; Petroselinyl, 5 μM",70216 RLU
same,mean luminescent intensity (RLuc pDNA),"Hek293 cells; Dodecanal, 5 μM",269506 RLU
same,mean luminescent intensity (RLuc pDNA),"Hek293 cells; Palmitoleyl, 10 μM",59470 RLU
same,mean luminescent intensity (RLuc pDNA),"Hek293 cells; Petroselinyl, 5 μM",78739 RLU
same,mean luminescent intensity (RLuc pDNA),"Hek293 cells; Petroselinyl, 10 μM",31561 RLU
same,mean luminescent intensity (RLuc pDNA),"Hela cells; Myristoleyl, 5 μM",564 RLU
same,mean luminescent intensity (RLuc pDNA),"Hela cells; Myristoleyl, 10 μM",379 RLU
same,mean luminescent intensity (RLuc pDNA),"Hela cells; Myristoleyl, 15 μM",452 RLU
same,mean luminescent intensity (RLuc pDNA),"Hela cells; Palmitoleyl, 5 μM",1206 RLU
same,mean luminescent intensity (RLuc pDNA),"HepG2 cells [1]; Dodecanal, 5 μM",322366 RLU
same,mean luminescent intensity (RLuc pDNA),"HepG2 cells [1]; Dodecanal, 10 μM",17040 RLU
same,mean luminescent intensity (RLuc pDNA),"HepG2 cells [1]; Dodecanal, 15 μM",2698 RLU
same,mean luminescent intensity (RLuc pDNA),"HepG2 cells [1]; Myristoleyl, 5 μM",418253 RLU
same,mean luminescent intensity (RLuc pDNA),"HepG2 cells [1]; Myristoleyl, 10 μM",85339 RLU
same,mean luminescent intensity (RLuc pDNA),"HepG2 cells [1]; Myristoleyl, 15 μM",23239 RLU
same,mean luminescent intensity (RLuc pDNA),"HepG2 cells [1]; Oleyl, 5 μM",116466 RLU
same,mean luminescent intensity (RLuc pDNA),"HepG2 cells [1]; Palmitoleyl, 5 μM",353987 RLU
same,mean luminescent intensity (RLuc pDNA),"HepG2 cells [1]; Palmitoleyl, 10 μM",97075 RLU
same,mean luminescent intensity (RLuc pDNA),"HepG2 cells [1]; Petroselinyl, 5 μM",168828 RLU
